Reference: PubChem BioAssay (NCI)
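96-well plates; 48 h exposure; 5 concentrations. Endpoints by linear interpolation between flanking doses. Not reached: highest tested concentration assigned. GI50: concentration for 50% inhibition of growth. At the TGI there is no net growth.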

What was measured:
Test in all cases: NCI tumour cell line growth inhibition, 48 h
[1] = tested on: COLO 205 colon
[2] = tested on: OVCAR-8 ovarian
[3] = tested on: NCI-H226 lung
[4] = tested on: UO-31 renal
[5] = tested on: A498 renal
[6] = tested on: HS 578T breast
[7] = tested on: OVCAR-5 ovarian
[8] = tested on: A549 NSCLC
[9] = tested on: SN12C renal
[10] = tested on: LOX IMVI melanoma
[11] = tested on: MALME-3M melanoma
[12] = tested on: OVCAR-4 ovarian
[13] = tested on: SW-620 colon
[14] = tested on: SK-MEL-2 melanoma
[15] = tested on: IGROV1 ovarian
[16] = tested on: HCC-2998 colon
[17] = tested on: SF-295 CNS
[18] = tested on: SNB-75 CNS
[19] = tested on: RPMI-8226 leukemia
[20] = tested on: UACC-257 melanoma
[21] = tested on: ACHN renal
[22] = tested on: MOLT-4 leukemia
[23] = tested on: HL-60(TB) leukemia
[24] = tested on: HOP-62 NSCLC
[25] = tested on: TK-10 renal
[26] = tested on: SF-268 CNS
[27] = tested on: 786-0 renal
[28] = tested on: CCRF-CEM leukemia
[29] = tested on: MDA-MB-231 breast
[30] = tested on: HCT-116 colon
[31] = tested on: SK-MEL-5 melanoma
[32] = tested on: KM12 colon
[33] = tested on: T-47D breast
[34] = tested on: U251 CNS
[35] = tested on: RXF 393 renal
[36] = tested on: SR leukemia
[37] = tested on: DU-145 prostate
[38] = tested on: CAKI-1 renal
[39] = tested on: SNB-19 CNS
[40] = tested on: BT-549 breast
[41] = tested on: HCT-15 colon
[42] = tested on: HT29 colon
[43] = tested on: MCF7 breast
[44] = tested on: NCI-H522 lung
[45] = tested on: PC-3 prostate
[46] = tested on: OVCAR-3 ovarian
[47] = tested on: SF-539 CNS
[48] = tested on: MDA-MB-435
[49] = tested on: K-562 leukemia
[50] = tested on: NCI-H23 lung
[51] = tested on: M14 melanoma
[52] = tested on: UACC-62 melanoma
[53] = tested on: EKVX NSCLC
[54] = tested on: NCI-H460 lung
[55] = tested on: SK-MEL-28 melanoma
[56] = tested on: SK-OV-3 ovarian
[57] = tested on: NCI/ADR-RES ovarian

## O=C(/C=C/c1ccco1)Nc1ncc(Cc2cccc(C(F)(F)F)c2)s1
[1]
  GI50: 43.3 nM
  TGI: 166 nM
[2]
  GI50: 138 nM
  TGI: > 37700 nM
[3]
  GI50: 336 nM
[4]
  GI50: 166 nM
  TGI: 5130 nM
[5]
  GI50: 26.7 nM
  TGI: 1730 nM
[6]
  GI50: 46.6 nM
  TGI: 3890 nM
[7]
  GI50: 353 nM
  TGI: 11800 nM
[8]
  GI50: 113 nM
  TGI: > 36400 nM
[9]
  GI50: 197 nM
  TGI: > 50500 nM
[10]
  GI50: 57.2 nM
  TGI: 2920 nM
[11]
  GI50: 125 nM
  TGI: 10600 nM
[12]
  GI50: 495 nM
  TGI: 4030 nM
[13]
  GI50: 42.2 nM
  TGI: > 100000 nM
[14]
  GI50: 96.6 nM
  TGI: 5280 nM
[15]
  GI50: 124 nM
  TGI: > 32200 nM
[16]
  GI50: 179 nM
  TGI: 2210 nM
[17]
  GI50: 67.8 nM
  TGI: 1420 nM
[18]
  GI50: 30.1 nM
  TGI: 1650 nM
[19]
  GI50: 291 nM
  TGI: 10900 nM
[20]
  GI50: 3630 nM
  TGI: > 100000 nM
[21]
  GI50: 64.7 nM
  TGI: 3660 nM
[22]
  GI50: 84 nM
  TGI: 26000 nM
[23]
  GI50: 60.4 nM
  TGI: 190 nM
[24]
  GI50: 96.5 nM
  TGI: 6320 nM
[25]
  GI50: 779 nM
  TGI: 13800 nM
[26]
  GI50: 167 nM
  TGI: > 44200 nM
[27]
  GI50: 163 nM
  TGI: 17800 nM
[28]
  GI50: 68.2 nM
  TGI: > 47800 nM
[29]
  GI50: 153 nM
  TGI: 4800 nM
[30]
  GI50: 43.8 nM
  TGI: > 32800 nM
[31]
  GI50: 51.2 nM
  TGI: 1810 nM
[32]
  GI50: 43.2 nM
  TGI: > 31800 nM
[33]
  GI50: 120 nM
  TGI: > 92200 nM
[34]
  GI50: 53.2 nM
  TGI: 2110 nM
[35]
  GI50: 57.6 nM
  TGI: 853 nM
[36]
  GI50: 33.4 nM
  TGI: 3670 nM
[37]
  GI50: 103 nM
  TGI: > 24300 nM
[38]
  GI50: 46.4 nM
  TGI: 7930 nM
[39]
  GI50: 100 nM
  TGI: > 44500 nM
[40]
  GI50: 248 nM
  TGI: > 21200 nM
[41]
  GI50: 46.5 nM
  TGI: > 34300 nM
[42]
  GI50: 38.8 nM
  TGI: > 33000 nM
[43]
  GI50: 36.7 nM
  TGI: > 56200 nM
[44]
  GI50: 32.1 nM
  TGI: 328 nM
[45]
  GI50: 55 nM
  TGI: > 44300 nM
[46]
  GI50: 38.6 nM
  TGI: 450 nM
[47]
  GI50: 76.2 nM
  TGI: 313 nM
[48]
  GI50: 20.7 nM
  TGI: 53.3 nM
[49]
  GI50: 36.1 nM
  TGI: > 33800 nM
[50]
  GI50: 208 nM
  TGI: > 39700 nM
[51]
  GI50: 57.2 nM
  TGI: 3180 nM
[52]
  GI50: 54.5 nM
  TGI: 24600 nM
[53]
  GI50: 117 nM
  TGI: > 55800 nM
[54]
  GI50: 40.1 nM
  TGI: 9590 nM
[55]
  GI50: 1100 nM
  TGI: > 50200 nM
[56]
  GI50: 62.6 nM
  TGI: 7450 nM
[57]
  GI50: 42.2 nM
  TGI: 1660 nM
